What was measured:
[1] = test system: Triticum aestivum (spring wheat); assay: Postemergence herbicidal activity, visual % control; assay type: in vivo; conditions: post-emergence, 336 h, post-emergent, after 14 days, 0 = no injury, 100 = complete kill, read-out: % Control TRZAS; for plant injury at 140 g/ha: 140 g ai/ha; for plant injury at 280 g/ha: 280 g ai/ha
Protocol: (§1) Seeds or nutlets of the desired test plant species were planted in Sun Gro MetroMix® 306 planting mixture, which typically has a pH of 6.0 to 6.8 and an organic matter content of about 30 percent, in plastic pots with a surface area of 64 square centimeters. When required to ensure good germination and healthy plants, a fungicide treatment and/or other chemical or physical treatment was applied. The plants were grown for 7-21 days in a greenhouse with an approximate 15 hour photoperiod which was maintained at about 23-29° C. during the day and 22-28° C. during the night. Nutrients and water were added on a regular basis and supplemental lighting was provided with overhead metal halide 1000-Watt lamps as necessary. The plants were employed for testing when they reached the first or second true leaf stage.
(§2) A weighed amount, determined by the highest rate to be tested, of each test compound was placed in a 25 mL glass vial and was dissolved in 4 mL of a 97:3 v/v (volume/volume) mixture of acetone and dimethyl sulfoxide (DMSO) to obtain concentrated stock solutions. […] The concentrated stock solutions obtained were diluted with 20 mL of an aqueous mixture containing acetone, water, isopropyl alcohol, DMSO, Atplus 411F crop oil concentrate, and Triton® X-155 surfactant in a 48.5:39:10:1.5:1.0:0.02 v/v ratio to obtain spray solutions containing the highest application rates. Additional application rates were obtained by serial dilution of 12 mL of the high rate solution into a solution containing 2 mL of 97:3 (v/v) mixture of acetone and dimethyl sulfoxide (DMSO) and 10 mL of an aqueous mixture containing acetone, water, isopropyl alcohol, DMSO, Atplus 411F crop oil concentrate, and Triton X-155 surfactant in a 48.5:39:10:1.5:1.0:0.02 (v/v) ratio to obtain ½X, ¼X, ⅛X and 1/16X rates of the high rate. Compound requirements are based upon a 12 mL application volume at a rate of 187 L/ha. Formulated compounds were applied to the plant material with an overhead Mandel track sprayer equipped with a 8002E nozzles calibrated to deliver 187 L/ha over an application area of 0.503 square meters at a spray height of […] above the average plant canopy height. Control plants were sprayed in the same manner with the solvent blank.
(§3) The treated plants and control plants were placed in a greenhouse as described above and watered by sub-irrigation to prevent wash-off of the test compounds. After 14 days, the condition of the test plants as compared with that of the untreated plants was determined visually and scored on a scale of 0 to 100 percent where 0 corresponds to no injury and 100 corresponds to complete kill

[2] = test system: Chenopodium album (lambsquarters); assay: as above; assay type: in vivo; conditions: post-emergence, 336 h, post-emergent, after 14 days, 0 = no injury, 100 = complete kill, read-out: % Control CHEAL; for pest or weed control at 140 g/ha: 140 g ai/ha; for pest or weed control at 280 g/ha: 280 g ai/ha
Protocol: as §1, §2, §3

[3] = test system: Cirsium arvense (canada thistle); assay: as above; assay type: in vivo; conditions: post-emergence, 336 h, post-emergent, after 14 days, 0 = no injury, 100 = complete kill, read-out: % Control CIRAR; for pest or weed control at 140 g/ha: 140 g ai/ha; for pest or weed control at 280 g/ha: 280 g ai/ha
Protocol: as §1, §2, §3

[4] = test system: Polygonum convolvulus (wild buckwheat); assay: as above; assay type: in vivo; conditions: Fallopia convolvulus, post-emergence, 336 h, post-emergent, after 14 days, 0 = no injury, 100 = complete kill, read-out: % Control POLCO; for pest or weed control at 280 g/ha: 280 g ai/ha; for pest or weed control at 140 g/ha: 140 g ai/ha
Protocol: as §1, §2, §3

[5] = test system: Amaranthus retroflexus (pigweed); assay: as above; assay type: in vivo; conditions: post-emergence, 336 h, post-emergent, after 14 days, 0 = no injury, 100 = complete kill, read-out: % Control AMARE; for pest or weed control at 280 g/ha: 280 g ai/ha; for pest or weed control at 140 g/ha: 140 g ai/ha
Protocol: as §1, §2, §3

`C[Si](C)(C)/C=C/c1c(C(=O)O)nc(Cl)c(F)c1N` [Compound 15, (E)-4-amino-6-chloro-5-fluoro-3-(2-(trimethylsilyl)vinyl)picolinic acid] showed a melting point of 100 to 105 °C, a plant injury at 140 g/ha [1] of 0% and a pest or weed control at 140 g/ha [2] of 80%. It also gave a pest or weed control at 140 g/ha [3] of 65%.

In the case of `C=Cc1c(C(=O)OC)nc(Cl)c(Cl)c1N` [Compound 1, methyl 4-amino-5,6-dichloro-3-vinylpicolinate], the melting point is reported as 96 to 97 °C, the plant injury at 280 g/ha [1] is reported as 0% and the pest or weed control at 280 g/ha [4] is reported as 100%. It also gave a pest or weed control at 280 g/ha [2] of 100%, a pest or weed control at 280 g/ha [5] of 100% and a pest or weed control at 280 g/ha [3] of 95%.

In the case of `COC(=O)c1nc(Cl)c(F)c(N)c1/C=C/[Si](C)(C)C` [Compound 7, (E)-methyl 4-amino-6-chloro-5-fluoro-3-(2-(trimethylsilyl)vinyl)picolinate], the melting point is reported as 103 to 105 °C, the plant injury at 140 g/ha [1] is reported as 0% and the pest or weed control at 140 g/ha [4] is reported as 50%. It also gave a pest or weed control at 140 g/ha [2] of 100%, a pest or weed control at 140 g/ha [5] of 90% and a pest or weed control at 140 g/ha [3] of 55%.

For `C=Cc1c(N)cc(Cl)nc1C(=O)O` [Compound 11, 4-amino-6-chloro-3-vinylpicolinic acid], the melting point was 146 to 148 °C, the plant injury at 280 g/ha [1] was 50% and the pest or weed control at 280 g/ha [2] was 100%. The pest or weed control at 280 g/ha [3] was 10%.

For `Nc1c(F)c(Cl)nc(C(=O)O)c1/C=C/Cl` [Compound 16, (E)-4-amino-6-chloro-3-(2-chlorovinyl)-5-fluoropicolinic acid], the melting point was 152 to 157 °C, the plant injury at 140 g/ha [1] was 80% and the pest or weed control at 140 g/ha [4] was 10%. For the same molecule, the pest or weed control at 140 g/ha [2] was 100%, the pest or weed control at 140 g/ha [5] was 90% and the pest or weed control at 140 g/ha [3] was 75%.

With `C/C=C/c1c(C(=O)O)nc(Cl)c(F)c1N` [Compound 13, (E)-4-amino-6-chloro-5-fluoro-3-(prop-1-en-l-yl)picolinic acid] the melting point was 153 to 155 °C, the plant injury at 140 g/ha [1] was 30% and the pest or weed control at 140 g/ha [4] was 60%. For the same molecule, the pest or weed control at 140 g/ha [2] was 85%, the pest or weed control at 140 g/ha [5] was 60% and the pest or weed control at 140 g/ha [3] was 70%.

`C=Cc1c(C(=O)O)nc(Cl)c(F)c1N` [Compound 9, 4-amino-6-chloro-5-fluoro-3-vinylpicolinic acid] showed a melting point of 164 to 166 °C, a plant injury at 140 g/ha [1] of 50% and a pest or weed control at 140 g/ha [2] of 100%. It also gave a pest or weed control at 140 g/ha [5] of 100% and a pest or weed control at 140 g/ha [3] of 100%.

With `C=Cc1c(N)cc(Cl)nc1C(=O)OC` [Compound 3, methyl 4-amino-6-chloro-3-vinylpicolinate] the melting point was 53 to 54 °C, the plant injury at 280 g/ha [1] was 20% and the pest or weed control at 280 g/ha [4] was 100%. For the same molecule, the pest or weed control at 280 g/ha [2] was 100%, the pest or weed control at 280 g/ha [5] was 100% and the pest or weed control at 280 g/ha [3] was 100%.

In the case of `C=Cc1c(C(=O)O)nc(Cl)c(Cl)c1N` [Compound 10, 4-amino-5,6-dichloro-3-vinylpicolinic acid], the melting point is reported as 190 to 193 °C (dec.), the plant injury at 280 g/ha [1] is reported as 20% and the pest or weed control at 280 g/ha [2] is reported as 100%. For the same molecule, the pest or weed control at 280 g/ha [5] was 100% and the pest or weed control at 280 g/ha [3] was 100%.

For `C/C=C\c1c(C(=O)OC)nc(Cl)c(F)c1N` [Compound 4, (Z)-methyl 4-amino-6-chloro-5-fluoro-3-(prop-1-en-1-yl)picolinate], the plant injury at 140 g/ha [1] was 0%, the pest or weed control at 140 g/ha [4] was 40% and the pest or weed control at 140 g/ha [2] was 100%. For the same molecule, the pest or weed control at 140 g/ha [5] was 100% and the pest or weed control at 140 g/ha [3] was 85%.

Work on `C=Cc1c(C(=O)OC)nc(Cl)c(F)c1N` [Compound 2, methyl 4-amino-6-chloro-5-fluoro-3-vinylpyridine-2-carboxylate] yielded a melting point of 99 to 100 °C, a plant injury at 140 g/ha [1] of 55% and a pest or weed control at 140 g/ha [2] of 90%. For the same molecule, the pest or weed control at 140 g/ha [5] was 100% and the pest or weed control at 140 g/ha [3] was 70%.

With `C=C(F)c1c(C(=O)O)nc(Cl)c(F)c1N` [Compound 14, 4-amino-6-chloro-5-fluoro-3-(1-fluorovinyl)picolinic acid] the plant injury at 140 g/ha [1] was 0%, the pest or weed control at 140 g/ha [4] was 90% and the pest or weed control at 140 g/ha [2] was 90%. It also gave a pest or weed control at 140 g/ha [5] of 50% and a pest or weed control at 140 g/ha [3] of 100%.

`C/C=C\c1c(C(=O)O)nc(Cl)c(F)c1N` [Compound 12, (Z)-4-amino-6-chloro-5-fluoro-3-(prop-1-en-l-yl)picolinic acid] gave a melting point of 141 to 143 °C, a plant injury at 140 g/ha [1] of 10% and a pest or weed control at 140 g/ha [4] of 85%. For the same molecule, the pest or weed control at 140 g/ha [2] was 100%, the pest or weed control at 140 g/ha [5] was 100% and the pest or weed control at 140 g/ha [3] was 80%.

For `C=C(F)c1c(C(=O)OC)nc(Cl)c(F)c1N` [Compound 6, methyl 4-amino-6-chloro-5-fluoro-3-(1-fluorovinyl)picolinate], the melting point was 98 to 100 °C, the plant injury at 140 g/ha [1] was 0% and the pest or weed control at 140 g/ha [4] was 90%. The pest or weed control at 140 g/ha [2] was 90%, the pest or weed control at 140 g/ha [5] was 20% and the pest or weed control at 140 g/ha [3] was 75%.

Work on `COC(=O)c1nc(Cl)c(F)c(N)c1/C=C/Cl` [Compound 8, (E)-methyl 4-amino-6-chloro-3-(2-chlorovinyl)-5-fluoropicolinate] yielded a melting point of 128 to 130 °C, a plant injury at 140 g/ha [1] of 0% and a pest or weed control at 140 g/ha [4] of 60%. For the same molecule, the pest or weed control at 140 g/ha [2] was 90%, the pest or weed control at 140 g/ha [5] was 90% and the pest or weed control at 140 g/ha [3] was 70%.

Molecule `C/C=C/c1c(C(=O)OC)nc(Cl)c(F)c1N` [Compound 5, (E)-methyl 4-amino-6-chloro-5-fluoro-3-(prop-1-en-1-yl)picolinate] has a melting point of 107 to 109 °C, a plant injury at 140 g/ha [1] of 0% and a pest or weed control at 140 g/ha [4] of 20%. It also gave a pest or weed control at 140 g/ha [2] of 90%, a pest or weed control at 140 g/ha [5] of 0% and a pest or weed control at 140 g/ha [3] of 65%.

Source: patent US8835409B2, “3-alkenyl-6-halo-4-aminopicolinates and their use as herbicides” (Dow AgroSciences, LLC., priority 2011, dated 2014)
